In paper PMC8319832, “Fine-Tuning of Alkaline Residues on the Hydrophilic Face Provides a Non-toxic Cationic α-Helical Antimicrobial Peptide Against Antibiotic-Resistant ESKAPE Pathogens” (Frontiers in Microbiology, 2021):
Converted amounts (≈) assume the structure as drawn.

Legend:
E. faecalis 901 [1] = test: Drug sensitivity, Kirby-Bauer test; format: cell-based; set-up: key: 'S' represents susceptibility; 'I' represents intermediate efficacy; 'R' represents resistance; conditions: clinical isolate
Experimental: (§1) The bacteria used in this study included the standard strains S. aureus ATCC29213 and ATCC25923, E. faecalis ATCC29212, E. coli ATCC25922 and ATCC35218, A. baumannii ATCC19606, K. pneumoniae ATCC700603 and P. aeruginosa ATCC27853, these strains were purchased from the China Center of Type Culture Collection (CCTCC). The antimicrobial activities of the peptides were also determined against clinically isolated strains S. aureus 4188, 9124, 1176, S. epidermidis 9092, 6943, 888, E. faecalis 901, E. faecium 898, E. coli 2678, 2687, K. pneumoniae 9126, P. aeruginosa 9014, 9042, and A. baumannii 906, 13012, 13079, 9068, these strains were acquired from Taihe Hospital, Hubei University of Medicine. The drug sensitivities of the clinical isolates to the antibiotics were determined by the Kirby-Bauer test ([Chinnambedu et al., 2020]).

S. epidermidis 9092 [2] = test: Drug sensitivity, Kirby-Bauer test; format: cell-based; set-up: key: 'S' represents susceptibility; 'I' represents intermediate efficacy; 'R' represents resistance; conditions: clinical isolate, MRSE
Experimental: as §1

S. epidermidis 6943 [3] = test: Drug sensitivity, Kirby-Bauer test; format: cell-based; set-up: key: 'S' represents susceptibility; 'I' represents intermediate efficacy; 'R' represents resistance; conditions: clinical isolate, MRSE
Experimental: as §1

S. epidermidis 888 [4] = test: Drug sensitivity, Kirby-Bauer test; format: cell-based; set-up: key: 'S' represents susceptibility; 'I' represents intermediate efficacy; 'R' represents resistance; conditions: clinical isolate
Experimental: as §1

S. aureus 9124 [5] = test: Drug sensitivity, Kirby-Bauer test; format: cell-based, Staphylococcus aureus; set-up: key: 'S' represents susceptibility; 'I' represents intermediate efficacy; 'R' represents resistance; conditions: clinical isolate, MRSA
Experimental: as §1

S. aureus 1176 [6] = test: Drug sensitivity, Kirby-Bauer test; format: cell-based, Staphylococcus aureus; set-up: key: 'S' represents susceptibility; 'I' represents intermediate efficacy; 'R' represents resistance; conditions: clinical isolate
Experimental: as §1

S. aureus 4188 [7] = test: Drug sensitivity, Kirby-Bauer test; format: cell-based, Staphylococcus aureus; set-up: key: 'S' represents susceptibility; 'I' represents intermediate efficacy; 'R' represents resistance; conditions: clinical isolate
Experimental: as §1

E. faecium 898 [8] = test: Drug sensitivity, Kirby-Bauer test; format: cell-based, Enterococcus faecium; set-up: key: 'S' represents susceptibility; 'I' represents intermediate efficacy; 'R' represents resistance; conditions: clinical isolate
Experimental: as §1

E. coli ATCC35218 = test: MIC, broth dilution; format: cell-based, Escherichia coli; conditions: CLSI broth dilution, MHB, 37°C, 20 h, OD630, at least three repeats; standard strain
From the text: (§2) All experiments were repeated at least three times.

E. coli 2678 = test: MIC, broth dilution; format: cell-based, Escherichia coli; conditions: CLSI broth dilution, MHB, 37°C, 20 h, OD630, at least three repeats; clinical isolate, ESBL
From the text: as §2

E. coli 2687 = test: MIC, broth dilution; format: cell-based, Escherichia coli; conditions: CLSI broth dilution, MHB, 37°C, 20 h, OD630, at least three repeats; clinical isolate, ESBL
From the text: as §2

S. aureus 9124 [9] = test: MIC, broth dilution; format: cell-based, Staphylococcus aureus; conditions: CLSI broth dilution, MHB, 37°C, 20 h, OD630, at least three repeats; clinical isolate, MRSA
From the text: as §2

S. aureus 1176 [10] = test: MIC, broth dilution; format: cell-based, Staphylococcus aureus; conditions: CLSI broth dilution, MHB, 37°C, 20 h, OD630, at least three repeats; clinical isolate
From the text: as §2

S. aureus 4188 [11] = test: MIC, broth dilution; format: cell-based, Staphylococcus aureus; conditions: CLSI broth dilution, MHB, 37°C, 20 h, OD630, at least three repeats; clinical isolate, penicillin-resistant
From the text: as §2

[12] = tested on: K. pneumoniae ATCC 700603; test: MIC, broth dilution; format: cell-based, Klebsiella pneumoniae; conditions: CLSI broth dilution, MHB, 37°C, 20 h, OD630, at least three repeats; standard strain
Experimental: as §2
(§3) To study the influence of physiological ions on the antimicrobial activities of the peptides, The MICs of the peptides were also determined against the standard bacterial strains cultured in MHB containing various salts at their physiological concentrations (150 mM NaCl, 4.5 mM KCl, 1 mM MgCl2, 2 mM CaCl2, 6 μM NH4HCO3, and 4 μM FeCl3) ([Ma et al., 2016]).

A. baumannii 906 = test: MIC, broth dilution; format: cell-based, Acinetobacter baumannii; conditions: CLSI broth dilution, MHB, 37°C, 20 h, OD630, at least three repeats; clinical isolate, CRE, MDR
From the text: as §2

A. baumannii 9068 = test: MIC, broth dilution; format: cell-based, Acinetobacter baumannii; conditions: CLSI broth dilution, MHB, 37°C, 20 h, OD630, at least three repeats; clinical isolate, CRE, MDR
From the text: as §2

A. baumannii 13079 = test: MIC, broth dilution; format: cell-based, Acinetobacter baumannii; conditions: CLSI broth dilution, MHB, 37°C, 20 h, OD630, at least three repeats; clinical isolate, CRE, MDR
From the text: as §2

A. baumannii 13012 = test: MIC, broth dilution; format: cell-based, Acinetobacter baumannii; conditions: CLSI broth dilution, MHB, 37°C, 20 h, OD630, at least three repeats; clinical isolate, CRE, MDR
From the text: as §2

P. aeruginosa 9014 = test: MIC, broth dilution; format: cell-based, Pseudomonas aeruginosa; conditions: CLSI broth dilution, MHB, 37°C, 20 h, OD630, at least three repeats; clinical isolate, CRE, MDR
From the text: as §2

P. aeruginosa 9042 = test: MIC, broth dilution; format: cell-based, Pseudomonas aeruginosa; conditions: CLSI broth dilution, MHB, 37°C, 20 h, OD630, at least three repeats; clinical isolate
From the text: as §2

E. faecium 898 [13] = test: MIC, broth dilution; format: cell-based, Enterococcus faecium; conditions: CLSI broth dilution, MHB, 37°C, 20 h, OD630, at least three repeats; clinical isolate
From the text: as §2

K. pneumoniae 9126 = test: MIC, broth dilution; format: cell-based, Klebsiella pneumoniae; conditions: CLSI broth dilution, MHB, 37°C, 20 h, OD630, at least three repeats; clinical isolate, CRE
From the text: as §2

A. baumannii ATCC 19606 = test: MIC, broth dilution; format: cell-based, Acinetobacter baumannii; conditions: CLSI broth dilution, MHB, 37°C, 20 h, OD630, at least three repeats; standard strain
Experimental: as §2, §3

E. faecalis 901 [14] = test: MIC, broth dilution; format: cell-based; conditions: CLSI broth dilution, MHB, 37°C, 20 h, OD630, at least three repeats; clinical isolate
From the text: as §2

S. epidermidis 9092 [15] = test: MIC, broth dilution; format: cell-based; conditions: CLSI broth dilution, MHB, 37°C, 20 h, OD630, at least three repeats; clinical isolate, MRSE
From the text: as §2

S. epidermidis 6943 [16] = test: MIC, broth dilution; format: cell-based; conditions: CLSI broth dilution, MHB, 37°C, 20 h, OD630, at least three repeats; clinical isolate, MRSE
From the text: as §2

S. epidermidis 888 [17] = test: MIC, broth dilution; format: cell-based; conditions: CLSI broth dilution, MHB, 37°C, 20 h, OD630, at least three repeats; clinical isolate
From the text: as §2

Row | Compound | Drug sensitivity of the isolate to the antibiotic (E. faecalis 901 [1]) | Drug sensitivity of the isolate to the antibiotic (S. epidermidis 9092 [2]) | Drug sensitivity of the isolate to the antibiotic (S. epidermidis 6943 [3]) | Drug sensitivity of the isolate to the antibiotic (S. epidermidis 888 [4]) | Drug sensitivity of the isolate to the antibiotic (S. aureus 9124 [5]) | Drug sensitivity of the isolate to the antibiotic (S. aureus 1176 [6]) | Drug sensitivity of the isolate to the antibiotic (S. aureus 4188 [7]) | Drug sensitivity of the isolate to the antibiotic (E. faecium 898 [8]) | other results
1 | CC[C@H]1OC(=O)[C@H](C)[C@@H](O[C@H]2C[C@@](C)(OC)[C@@H](O)[C@H](C)O2)[C@H](C)[C@@H](O[C@@H]2O[C@H](C)C[C@H](N(C)C)[C@H]2O)[C@](C)(O)C[C@@H](C)C(=O)[C@H](C)[C@@H](O)[C@]1(C)O [Erythromycin] | R | R | R | R | R | R | S | R | –
2 | CNC(C)C1CCC(N)C(OC2C(N)CC(N)C(OC3OCC(C)(O)C(NC)C3O)C2O)O1 (stereo not shown) [Gentamicin] | R | R | S | R | S | S | S | R | –
3 | CC[C@H](C)[C@H](NC(=O)CN)C(=O)NCC(=O)N[C@@H](C)C(=O)N[C@H](C(=O)N[C@@H](CC(C)C)C(=O)N[C@@H](CCCCN)C(=O)N[C@H](C(=O)N[C@@H](CC(C)C)C(=O)N[C@H](C(=O)N[C@H](C(=O)NCC(=O)N[C@@H](CC(C)C)C(=O)N1CCC[C@H]1C(=O)N[C@@H](C)C(=O)N[C@@H](CC(C)C)C(=O)N[C@H](C(=O)N[C@@H](CO)C(=O)N[C@@H](Cc1c[nH]c2ccccc12)C(=O)N[C@H](C(=O)N[C@@H](CCCCN)C(=O)N[C@@H](CCCNC(=N)N)C(=O)N[C@@H](CCCCN)C(=O)N[C@@H](CCCNC(=N)N)C(=O)N[C@@H](CCC(N)=O)C(=O)N[C@@H](CCC(N)=O)C(N)=O)[C@@H](C)CC)[C@@H](C)CC)[C@@H](C)O)[C@@H](C)O)C(C)C)C(C)C [Melittin] | – | – | – | – | – | – | – | – | MIC (E. coli ATCC35218): 5 µg/mL (≈ 1.76 µM); MIC (E. coli 2678): 5 µg/mL (≈ 1.76 µM); MIC (E. coli 2687): 2.5 µg/mL (≈ 0.878 µM); MIC (S. aureus 9124 [9]): 2.5 µg/mL (≈ 0.878 µM); MIC (S. aureus 1176 [10]): 5 µg/mL (≈ 1.76 µM); MIC (S. aureus 4188 [11]): 2.5 µg/mL (≈ 0.878 µM); MIC [12]: 5 µg/mL (≈ 1.76 µM); MIC (A. baumannii 906): 2.5 µg/mL (≈ 0.878 µM); MIC (A. baumannii 9068): 2.5 µg/mL (≈ 0.878 µM); MIC (A. baumannii 13079): 2.5 µg/mL (≈ 0.878 µM); MIC (A. baumannii 13012): 2.5 µg/mL (≈ 0.878 µM); MIC (P. aeruginosa 9014): 5 µg/mL (≈ 1.76 µM); MIC (P. aeruginosa 9042): 5 µg/mL (≈ 1.76 µM); MIC (E. faecium 898 [13]): 5 µg/mL (≈ 1.76 µM); MIC (K. pneumoniae 9126): 5 µg/mL (≈ 1.76 µM); MIC (A. baumannii ATCC 19606): 2.5 µg/mL (≈ 0.878 µM); MIC (E. faecalis 901 [14]): 2.5 µg/mL (≈ 0.878 µM); MIC (S. epidermidis 9092 [15]): 2.5 µg/mL (≈ 0.878 µM); MIC (S. epidermidis 6943 [16]): 2.5 µg/mL (≈ 0.878 µM); MIC (S. epidermidis 888 [17]): 2.5 µg/mL (≈ 0.878 µM)
4 | CO[C@H]1/C=C/O[C@@]2(C)Oc3c(C)c(O)c4c(O)c(c(/C=N/N5CCN(C)CC5)c(O)c4c3C2=O)NC(=O)/C(C)=C\C=C\[C@H](C)[C@H](O)[C@@H](C)[C@@H](O)[C@@H](C)[C@H](OC(C)=O)[C@@H]1C [Rifampin] | R | S | S | S | S | S | S | R | –
5 | Penicillin | S | R | R | S | R | R | R | R | –
